Experimental data: US20220298143A1, “Pyrazole Derivatives for FGFR Inhibitor and Preparation Method Thereof” (Etern Biopharma (Shanghai) Co., Ltd., priority 2019, published 2022)
pIC50: −log10 of the molar value.

Key:
FGFR2 = FGFR2 (Homo sapiens, UniProt P21802); test: Enzymatic activity test of FGFR inhibitor, Caliper model; type: biochemical; conditions: kinase pre-incubation 10 minutes
Protocol: (§1) Enzymatic Activity Test of FGFR Inhibitor-Caliper Model
(§2) The specific operation steps were as follows:
(§3) The compound was first serially diluted in 5% DMSO solution, and 5 μL of the compound solution was added to a 384-well plate. The maximum final concentration of the compound is 1 μM, being diluted three times with 10 concentrations.
(§4) 10 μL of kinase solution was added to the 384-well plate and incubated at room temperature for 10 minutes;
(§5) 10 μL of P22 peptide and ATP solution were added to the 384-well plate, and 25 μL of reaction stop buffer was added after a specific time at 28° C.;
(§6) The data was collected in Caliper read and the inhibition rate was calculated according to inhibition rate=(max−conversion)/(max−min)*100, where max is DMSO control, conversion is the reading of the compound treated group, and min is the maximum inhibition control. IC50 value of the compound was calculated with XLfit excel add-in version 5.4.0.8 software.

[1] = Compound pharmacokinetic experiment, single intragastric administration; type: in vivo; conditions: mouse, plasma, male mice, oral dosage 15 mg/Kg
Protocol: Compound Pharmacokinetic Experiment
The pharmacokinetics of the compounds of the present disclosure was determined. This application used the following methods to determine the pharmacokinetic parameters of the compounds.
For the healthy male adult mice used in the study, each group of animals was given a single intragastric administration of 5-100 mg/Kg. Fasting was from 10 hours before administration to 4 hours after administration. Blood was collected at different time points after administration, and the plasma content of the compound was determined (LC-MS/MS). The plasma concentration-time relationship was analyzed with professional software (winnonlin) to calculate the pharmacokinetic parameters of the compound.

FGFR3 = FGFR3 (Homo sapiens, UniProt P22607); test: Enzymatic activity test of FGFR inhibitor, Caliper model; type: biochemical; conditions: kinase pre-incubation 10 minutes
FGFR1 = biological target: T1, FGFR1 (Homo sapiens, UniProt P11362); test: as above; type: biochemical; conditions: Caliper, kinase pre-incubation 10 minutes; read-out: FGFR1
T1 construct: purchased Cama (sic; Carna) 08-133
Protocol: as §1, §2, §3, §4, §5, §6

FGFR4 = biological target: T2, FGFR4 (Homo sapiens, UniProt P22455); test: as above; type: biochemical; conditions: Caliper, kinase pre-incubation 10 minutes; read-out: FGFR4
T2 construct: purchased Invitrogen PR4380A
Protocol: as §1, §2, §3, §4, §5, §6

Hep3B cells = test: Human liver cancer cell Hep3B survival test (CellTiter-Glo); type: cell-based; conditions: 72 hours compound treatment
Protocol: Human Liver Cancer Cell Hep3B Survival Test
The human liver cancer Hep3B cell line was from ATCC. The cells were cultured in DMEM liquid medium, and fetal bovine serum (10% FBS) and penicillin-streptomycin (100,000 U/L) were added. The cells were kept at 37° C., 95% humidity and 5% carbon dioxide in the culture medium. During the experiment, Hep3B cells were seeded in a 96-well plate at a density of 3000 cells per well. The volume of the cell suspension was 100 μL per well, and the cells were cultured overnight to attach the cells. The next day, each compound was diluted with DMSO in a three-fold gradient, and 1 μL of the solution of the compound in DMSO was added to the cell culture medium. At the same time, 1 μL of DMSO was used as a control. Three parallel sub-wells were set for each concentration of each compound. Then the cells were placed in a 37° C. incubator. After 72 hours of continuous compound treatment, 50 μL CellTiter-Glo (Promega, Madison Wis.) was added to the cell culture medium. The relative luminescence unit (RLU) of each well was determined and the cell survival rate and compound activity (IC50) were calculated.

[2] = biological target: T3, FGFR1 (456-763) kinase domain protein (Homo sapiens, UniProt P11362); test: Confirmation of covalent bond formation between inhibitor and FGFR by mass spectrometry; type: binding
T3 construct: The purified FGFR1 (456-763) kinase domain protein
Protocol: Confirmation of the Formation of Covalent Bonds Between FGFR Irreversible Inhibitors and FGFR by Mass Spectrometry
For example, compound 1 was incubated with FGFR1, the molecular weight of the protein-compound complex was detected by mass spectrometry.
Operation steps: The purified FGFR1 (456-763) kinase domain protein was diluted with a protein buffer (20 mM Tris-HCL pH8.0, 150 mM Nacl) to a final concentration of about 20 μM (800 ng/μl). A 100 ul incubation system was used, wherein compound 1 with a final concentration of 100 μM was added to the experimental group with a molar ratio of the protein to compound of 1:5 and DMSO was added to the control group. The amount of DMSO was controlled in the two groups to be 1% by volume of the system. The experimental group and the control group were incubated on ice at the same time for 2 hours, and then diluted with 4 times volume of acetone at −20 overnight. After centrifugation at 16000×g for 10 minutes, the deposit was resuspended in 0.1% formic acid and loaded for mass spectrometry data collection.

[3] = system: Human liver cancer Hep3B cells; test: Hep3B transplanted tumor model; type: in vivo, Balb/c nude mice; conditions: 21 days
Protocol: Hep3B Transplanted Tumor Model
Cell culture: Human liver cancer Hep3B cells were cultured in a monolayer in vitro. The culture conditions were 1640 medium with 10% fetal bovine serum, 100 U/mL penicillin and 100 μg/mL streptomycin, incubated at 37° C. in 5% CO2 incubator. Routine digestive passage was performed by pancreatin-EDTA twice a week. When the cell saturation was 80%-90% and the number reached the requirement, the cells were collected, counted, and inoculated.
Animals: Balb/c nude mice, female, 6-8 weeks old, weighing 18-22 grams, provided by Shanghai Slack Laboratory Animal Co., Ltd. or other qualified suppliers.
Tumor inoculation: 0.2 mL (10×106+Matrixgel) Hep3B cells were subcutaneously inoculated on the right back of each mouse, and group administration was started when the average tumor volume reached about 140-200 mm^3.
Administration: compound prescription (0.5% MC+0.5% Tween 80) was made with administration dose of 0.3 mg/Kg, 1 mg/Kg, 2 mg/Kg, 3 mg/Kg, intragastric administration twice a day continuously for 21 days.
Experimental indicators: to investigate whether tumor growth was inhibited, delayed or cured, the tumor diameter was measured with a vernier caliper three times a week. The calculation formula for tumor volume is: V=0.5a×b2, where a and b represent the long diameter and short diameter of the tumor, respectively. The anti-tumor efficacy of the compound was evaluated by TGI (%). TGI (%) reflected the tumor growth inhibition rate.

[4] = 100 μM compound, about 20 μM protein, 2 hours on ice

T3 sequence (P11362 456-763): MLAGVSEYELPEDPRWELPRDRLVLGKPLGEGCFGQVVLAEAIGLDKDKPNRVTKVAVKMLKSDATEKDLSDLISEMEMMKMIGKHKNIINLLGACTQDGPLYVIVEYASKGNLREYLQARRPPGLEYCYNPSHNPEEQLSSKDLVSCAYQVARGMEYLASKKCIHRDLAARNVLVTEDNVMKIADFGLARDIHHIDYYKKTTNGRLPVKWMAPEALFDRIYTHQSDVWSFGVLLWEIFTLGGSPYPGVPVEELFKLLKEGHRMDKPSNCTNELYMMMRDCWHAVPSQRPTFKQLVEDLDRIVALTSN
T1 sequence (P11362 22-822): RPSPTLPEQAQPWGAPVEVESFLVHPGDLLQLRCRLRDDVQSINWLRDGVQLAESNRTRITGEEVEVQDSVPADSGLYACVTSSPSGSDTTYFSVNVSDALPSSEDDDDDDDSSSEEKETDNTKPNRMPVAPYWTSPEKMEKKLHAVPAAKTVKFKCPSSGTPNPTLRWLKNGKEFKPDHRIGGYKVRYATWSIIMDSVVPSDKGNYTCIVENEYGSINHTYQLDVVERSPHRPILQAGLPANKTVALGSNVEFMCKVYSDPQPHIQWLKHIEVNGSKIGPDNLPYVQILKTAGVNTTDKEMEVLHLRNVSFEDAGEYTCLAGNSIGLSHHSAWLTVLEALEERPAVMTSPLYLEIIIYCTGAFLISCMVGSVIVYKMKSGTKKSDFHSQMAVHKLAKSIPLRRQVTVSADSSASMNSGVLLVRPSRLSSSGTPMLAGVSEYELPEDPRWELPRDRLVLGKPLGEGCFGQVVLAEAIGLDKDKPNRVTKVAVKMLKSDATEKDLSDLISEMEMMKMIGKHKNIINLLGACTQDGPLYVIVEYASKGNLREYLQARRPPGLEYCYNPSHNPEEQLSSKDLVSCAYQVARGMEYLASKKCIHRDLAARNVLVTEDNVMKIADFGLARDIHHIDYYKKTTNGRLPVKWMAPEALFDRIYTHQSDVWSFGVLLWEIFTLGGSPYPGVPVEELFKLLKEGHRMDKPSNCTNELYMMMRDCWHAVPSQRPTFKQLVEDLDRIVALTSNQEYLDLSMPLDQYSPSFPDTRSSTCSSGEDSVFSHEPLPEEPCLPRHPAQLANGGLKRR
FGFR2, sequence (P21802 22-821): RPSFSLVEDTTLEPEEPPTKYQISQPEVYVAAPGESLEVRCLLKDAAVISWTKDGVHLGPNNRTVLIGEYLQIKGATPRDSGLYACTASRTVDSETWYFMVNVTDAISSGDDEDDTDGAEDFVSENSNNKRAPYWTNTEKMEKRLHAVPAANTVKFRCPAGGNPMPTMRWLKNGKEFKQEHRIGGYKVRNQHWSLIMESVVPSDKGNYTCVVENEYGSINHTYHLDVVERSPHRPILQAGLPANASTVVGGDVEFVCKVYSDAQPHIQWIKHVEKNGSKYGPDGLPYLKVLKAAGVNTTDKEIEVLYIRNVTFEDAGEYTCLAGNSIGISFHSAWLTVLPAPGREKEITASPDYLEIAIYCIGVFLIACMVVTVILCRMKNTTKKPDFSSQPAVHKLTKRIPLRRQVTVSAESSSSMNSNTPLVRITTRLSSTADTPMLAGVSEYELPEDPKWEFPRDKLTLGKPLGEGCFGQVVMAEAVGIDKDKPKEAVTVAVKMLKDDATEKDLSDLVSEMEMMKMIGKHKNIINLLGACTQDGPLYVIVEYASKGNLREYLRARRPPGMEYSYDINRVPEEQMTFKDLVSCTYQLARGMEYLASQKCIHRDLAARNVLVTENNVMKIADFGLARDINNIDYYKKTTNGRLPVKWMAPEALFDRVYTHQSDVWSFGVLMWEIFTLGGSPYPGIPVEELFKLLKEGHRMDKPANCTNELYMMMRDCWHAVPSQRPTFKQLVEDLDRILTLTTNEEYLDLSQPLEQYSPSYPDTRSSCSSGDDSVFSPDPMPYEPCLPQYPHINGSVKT
FGFR3, sequence (P22607 23-806): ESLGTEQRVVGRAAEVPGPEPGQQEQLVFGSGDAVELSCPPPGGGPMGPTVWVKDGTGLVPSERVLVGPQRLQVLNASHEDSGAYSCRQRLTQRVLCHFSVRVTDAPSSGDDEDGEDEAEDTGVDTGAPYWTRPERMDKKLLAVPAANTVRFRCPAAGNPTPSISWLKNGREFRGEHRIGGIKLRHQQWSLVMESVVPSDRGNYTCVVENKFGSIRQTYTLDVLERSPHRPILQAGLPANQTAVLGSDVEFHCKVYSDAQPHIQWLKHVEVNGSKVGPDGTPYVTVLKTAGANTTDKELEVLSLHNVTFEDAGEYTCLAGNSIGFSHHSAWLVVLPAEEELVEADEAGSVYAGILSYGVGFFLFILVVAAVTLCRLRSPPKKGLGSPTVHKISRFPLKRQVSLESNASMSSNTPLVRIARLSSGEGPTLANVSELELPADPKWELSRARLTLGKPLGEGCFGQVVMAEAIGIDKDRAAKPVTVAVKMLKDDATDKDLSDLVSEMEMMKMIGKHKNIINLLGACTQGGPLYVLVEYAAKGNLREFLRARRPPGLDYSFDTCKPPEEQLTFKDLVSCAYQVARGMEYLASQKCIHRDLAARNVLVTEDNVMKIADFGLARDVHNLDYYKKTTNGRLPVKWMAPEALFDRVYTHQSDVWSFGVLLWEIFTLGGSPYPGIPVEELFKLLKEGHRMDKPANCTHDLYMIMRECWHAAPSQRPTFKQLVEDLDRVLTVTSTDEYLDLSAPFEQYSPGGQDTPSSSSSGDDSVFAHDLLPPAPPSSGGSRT
T2 sequence (P22455 22-802): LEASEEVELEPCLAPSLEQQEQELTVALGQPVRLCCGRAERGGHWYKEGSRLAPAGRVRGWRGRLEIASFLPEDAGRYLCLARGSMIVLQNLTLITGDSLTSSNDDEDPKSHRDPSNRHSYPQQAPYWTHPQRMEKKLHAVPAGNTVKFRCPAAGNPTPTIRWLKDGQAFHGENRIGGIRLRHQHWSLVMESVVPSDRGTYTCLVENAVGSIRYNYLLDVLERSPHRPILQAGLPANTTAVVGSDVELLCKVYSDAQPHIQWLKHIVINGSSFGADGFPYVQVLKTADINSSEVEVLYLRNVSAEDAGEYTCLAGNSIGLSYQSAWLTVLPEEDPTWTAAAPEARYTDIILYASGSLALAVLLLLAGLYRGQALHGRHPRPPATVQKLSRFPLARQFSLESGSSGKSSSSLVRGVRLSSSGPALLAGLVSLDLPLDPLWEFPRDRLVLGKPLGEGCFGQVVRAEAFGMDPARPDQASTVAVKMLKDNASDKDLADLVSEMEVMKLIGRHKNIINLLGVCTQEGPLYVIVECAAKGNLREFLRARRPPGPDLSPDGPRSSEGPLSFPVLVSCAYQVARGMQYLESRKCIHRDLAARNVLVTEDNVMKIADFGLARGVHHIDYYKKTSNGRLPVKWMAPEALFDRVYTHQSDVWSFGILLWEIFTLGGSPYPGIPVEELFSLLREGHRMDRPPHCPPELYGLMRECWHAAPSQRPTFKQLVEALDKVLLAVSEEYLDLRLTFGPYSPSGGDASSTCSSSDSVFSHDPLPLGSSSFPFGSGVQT

C=CC(=O)Nc1cc(N2CCN(CCC(F)(F)F)CC2)ccc1C(=O)Nc1cc(CCc2cc(OC)cc(OC)c2)n[nH]1 [Compound 1, 2-acrylamide-N-(3-(3,5-dimethoxyphenethyl)-1H-pyrazol-5-yl)-4-(4-(3,3,3-trifluoropropyl)piperazin-1-yl) benzamide]
pIC50 (FGFR2): 8.74 | Cmax ([1]; read-out: Peak plasma concentration Cmax): 1220 nM | AUC ([1]; read-out: Plasma exposure AUC): 2.27 µM·h | pIC50 (FGFR3): 8.48 | pIC50 (FGFR1): 8.72 | pIC50 (FGFR4): 8.92 | pIC50 (Hep3B cells): 8.85 | average molecular weight of protein-compound complex [2, 4]: 36345.5 Da | Δmolecular weight (complex versus DMSO + FGFR1) [2, 4]: 598 | formation of covalent bond with FGFR1 protein ([2]; mass spectrometry): formed an irreversible covalent bond | TGI % ([3]; 0.3 mpk oral twice a day): 17% | TGI % ([3]; 1 mpk oral twice a day): 50% | TGI % ([3]; 2 mpk oral twice a day): 100% | TGI % ([3]; 3 mpk oral twice a day): 108%
